Paper PMC7316778 (Nature Communications, 2020)

How the values were obtained:
Set-up in all cases: human FES cDNA encoding residues 448–822 or human FER cDNA encoding residues 448–820 was amplified by PCR; made in house; host or cells: E. coli BL21(DE3), co-expressing YopH phosphatase
[1] = biological target: T1, FES^S700C (Homo sapiens, UniProt P07332, S700C); assay: In vitro TR-FRET kinase assay; format: biochemical; settings: TR-FRET assay, 5 µM ATP; n = 3; read-out: pIC50 FES^S700C (converted)
[2] = biological target: T1, FES^S700C; assay: PamChip microarray peptide phosphorylation; format: biochemical; settings: for Mean signal, time course: Figure 7f, S700C + WEL028, n 3
[3] = biological target: T1, FES^S700C; assay: MS identification of covalent inhibitor-peptide adduct; settings: 1 μM, 30 min, rt
Description: Purified FES^S700C (1.2 μg in 38 μL) was treated with WEL028 (2 μL of 20× concentrated stock in DMSO, 1 μM final concentration) or vehicle (as negative control) for 30 min at rt. […] Gel was stained using Coomassie Brilliant Blue R-250, bands were cut out of gel into small blocks and then destained in 500 μL of 50% MeOH in 100 mM NH4HCO3 pH 8.0 for 10 min at rt. Acetonitrile (500 μL) was added for gel blocks dehydration, after which gel blocks were digested with sequencing-grade trypsin (Promega) in 250 μL trypsin buffer (100 mM Tris pH 7.5, 100 mM NaCl, 1 mM CaCl2, 10% acetonitrile) overnight at 37 °C with vigorous shaking. […] Samples were subsequently desalted using StageTips with C18 material. […]
Tryptic peptides were analyzed on a Surveyor nano-LC system (Thermo) hyphenated to a LTQ-Orbitrap mass spectrometer (Thermo) (n = 1)[69]. […] Samples of 10 µl were separated via a trap-elute setup at 250 nL/min flow and analyzed by data-dependent acquisition of one full scan/ top 3 method. For shotgun proteomics, fragmented precursor ions measured twice within 10 s were dynamically excluded for 60 s and ions with z < 2 or unassigned charges were not analyzed. Peptide ID was determined with the Mascot search engine. […]

T1 sequence (P07332 448-822 S700C): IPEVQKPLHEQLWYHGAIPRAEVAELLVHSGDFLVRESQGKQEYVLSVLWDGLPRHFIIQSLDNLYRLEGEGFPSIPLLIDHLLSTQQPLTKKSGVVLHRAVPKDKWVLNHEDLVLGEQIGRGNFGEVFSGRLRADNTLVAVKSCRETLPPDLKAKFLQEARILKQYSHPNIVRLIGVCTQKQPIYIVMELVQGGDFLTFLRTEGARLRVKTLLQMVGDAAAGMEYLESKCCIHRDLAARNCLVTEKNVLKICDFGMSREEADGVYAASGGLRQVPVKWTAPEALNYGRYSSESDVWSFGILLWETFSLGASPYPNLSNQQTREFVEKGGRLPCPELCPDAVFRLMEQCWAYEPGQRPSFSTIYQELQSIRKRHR

C#CCOc1ccc(Nc2ncc(Cl)c(Nc3ccccc3NC(=O)C=C)n2)c(OC)c1 [Compound 6]
IC50 [1]: 3.98 nM
Mean signal, time course ([2]; time 0 min): -48.0
Mean signal, time course ([2]; time 5 min): -46.0
Mean signal, time course ([2]; time 10 min): -41.0
Mean signal, time course ([2]; time 15 min): -40.0
Mean signal, time course ([2]; time 20 min): -38.0
Mean signal, time course ([2]; time 25 min): -35.0
Mean signal, time course ([2]; time 30 min): -33.0
Mean signal, time course ([2]; time 35 min): -32.0
Mean signal, time course ([2]; time 40 min): -32.0
Mean signal, time course ([2]; time 45 min): -30.0
Mean signal, time course ([2]; time 50 min): -26.0
Mean signal, time course ([2]; time 55 min): -29.0
Mean signal, time course ([2]; time 60 min): -29.0
ZAP70 peptide phosphorylation ([2]; WEL028 100 nM): abolished peptide phosphorylation
Covalent adduct by LC-MS/MS [3]: covalent addition of WEL028 to Cys700
